Test results: paper PMC7523975, “Alkaloids of Abuta panurensis Eichler: In silico and in vitro study of acetylcholinesterase inhibition, cytotoxic and immunomodulatory activities” (PLoS ONE, 2020)

Legend:
[1] = molecular target: T1, acetylcholinesterase (AChE, TcAChE) (Tetronarce californica, UniProt P04058); test: Ellman colorimetric assay with commercial enzyme, […] nm; assay type: biochemical
[2] = molecular target: T1, acetylcholinesterase (AChE, TcAChE); test: Ellman colorimetric assay with commercial enzyme, […] nm (positive control); assay type: biochemical

T1 sequence (P04058 22-564): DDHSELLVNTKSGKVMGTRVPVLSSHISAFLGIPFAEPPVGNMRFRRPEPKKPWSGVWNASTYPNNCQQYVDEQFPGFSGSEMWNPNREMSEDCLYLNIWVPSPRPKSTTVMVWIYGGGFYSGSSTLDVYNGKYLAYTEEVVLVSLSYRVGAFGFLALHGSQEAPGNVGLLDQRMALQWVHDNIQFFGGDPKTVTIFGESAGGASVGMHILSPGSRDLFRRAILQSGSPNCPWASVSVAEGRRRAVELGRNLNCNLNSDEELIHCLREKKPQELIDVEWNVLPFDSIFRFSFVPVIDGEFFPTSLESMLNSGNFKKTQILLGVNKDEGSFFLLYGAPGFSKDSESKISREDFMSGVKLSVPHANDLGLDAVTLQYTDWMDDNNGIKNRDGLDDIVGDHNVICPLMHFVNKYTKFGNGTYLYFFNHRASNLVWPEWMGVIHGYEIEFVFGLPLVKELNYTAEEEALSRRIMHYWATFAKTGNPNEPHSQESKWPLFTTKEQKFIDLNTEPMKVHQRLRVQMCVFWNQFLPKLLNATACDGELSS

Question: How did the IC50 [1] turn out when `CN(CCCCNC(=O)/C=C/c1ccccc1)CCCNC(=O)/C=C/c1ccccc1` [compound 1, 5-N-methylmaytenine] was run?
Answer: 19.6 µM

Question: With `COC1=CC2CCNC3CC4(C=CC(=O)C=C4)C(=C1OC)C23` (stereo not drawn) [compound 2, stepharine] as the compound, how does the IC50 [1] read?
Answer: 61.2 µM

Question: For `CN(C)C(=O)Oc1cccc([N+](C)(C)C)c1` [neostigmine], which IC50 [2] is on record?
Answer: 3.72 µM
